Data taken from patent US8815935B2, “Inhibitors of protein prenyltransferases” (The Regents of the University of California, priority 2008, dated 2014).

What was measured:
K562 cells = test: Cell cycle profile by flow cytometry, K562; format: cell-based, human; conditions: 48 hours, FIG. 24A
Description: K562 cells were treated with indicated concentrations (mM) of P3-E5 (ranging from […]) or GGTI-298 (ranging from […]) for 48 hours. Cell cycle profiles were monitored by flow cytometry. Percentages of cells in each phase of the cell cycle are indicated by different colors. Red: G0/G1 phase. Black: S phase. Gray: G2/M phase.

[1] = test system: H-Ras farnesylation in NIH3T3 cells; test: H-Ras mobility shift immunoblot in NIH3T3 cells; format: cell-based; conditions: 48 hours
Description: K562 cells were treated with modified compounds for 72 hours and then cell number was counted. IC50 values of cell viability relative to the DMSO were measured. […] Data represent the mean+/−S.D. of two measurements from two independent experiments. *, P<0.05 compared with the value for DMSO. […] Whole cell lysates from cells treated with DMSO, P5-H6, P61-A6, GGTI (GGTI-298), FTI (BMS-225975) or RabGGTI (P49-F6) for 48 hours were prepared and processed for immunoblot analysis using antibody against unprenylated form of Rap1 (C: upper panel), Total-Rap1 (C: middle panel), H-Ras (D: upper panel), Rab5b (E: upper panel) or actin (C, D, and E: lower panel). The immunoblots shown represent two independent experiments for each treatment.
This was examined by using a farnesylated protein H-Ras.

PANC-1 xenograft tumor = PANC-1 xenograft tumor growth in SCID mice; format: in vivo; conditions: 1.16 mg/kg i.p., six times per week
Description: Xenograft tumor experiments have shown that GGTI's can inhibit PANC-1 tumor growth in mice. Seven SCID mice (six weeks old) received a subcutaneous implantation of 5 million PANC-1 cells. The mice were supplied with food and water for 14 days before treatment was started. The treatment group received 160 uM GGTI (p61A6) in 0.25 ml 0.9% NaCl while the control group received 0.25 ml 0.9% NaCl. Each dosage was injected 3 times per week. These dosage were designed to administer p61A6 at approximately 1.16 mg/kg of body weight. Also, since the mouse has about 2 ml blood, the final concentration of p61A6 in vivo was approximately 20 uM. The final DMSO concentration in the control group was approximately 0.8%.
Additional xenograft tumor experiments have shown that GGTI's can inhibit PANC-1 tumor growth in mice and reduce the size of the tumor. Six SCID mice (six weeks old) received a subcutaneous implantation of 3 million PANC-1 cells. The mice were supplied with food and water for 14 days before treatment began. […] Every two weeks each mouse's body weight and tumor volume was measured.

p21CIP1/WAF1 promoter = test: p21 promoter luciferase reporter assay in NIH3T3 cells; format: cell-based; conditions: NIH3T3, 48 hours, dose dependent
Description: For the p21^WAF1/CIP1 promoter luciferase assay, NIH3T3 cells were transfected with p21^WAF1/CIP1 promoter-Luc or vector plasmids (33) (both plasmids are provided by Dr. Genhong Cheng). Cells were treated with GGTI compounds. Promega luciferase assay kit was used according to the manufacturer's protocol.
Another mechanism through which GGTI can effect cell cycle progression is to inhibit RhoA which negatively regulates expression of a Cdk inhibitor p21^CIP1/WAF1. To investigate whether the GGTI compounds described herein can induce p21^CIP1/WAF1 expression, luciferase transcriptional activation from the p21^CIP1/WAF1 promoter (33) was measured. Transient expression systems with NIH3T3 cells were used to examine the ability of P61-A6 to induce p21^CIP1/WAF1-luciferase expression. P61-A6 induced significant (4-fold) inductions of luciferase activity versus DMSO in a dose dependence manner (FIG. 37C).

SE-Mk2 = SE-Mk2 cell growth inhibition; format: cell-based; conditions: Homo sapiens, SEMK2, 144 h; 6 days, CCK-8, vs DMSO; read-out: IC50, SE-Mk2 (Blood)
Description: (§1) Cell viability was determined by Cell Counting Kit-8 (CCK-8, Dojindo, Kumamoto, Japan) as described previously (31). Cell viability was calculated relative to the DMSO control. Cell cycle profile was analyzed by flow cytometry as described previously (32).

CFpac-1 = CFpac-1 cell growth inhibition; format: cell-based, human; conditions: Homo sapiens, CFPAC-1, 72 h; 3 days, CCK-8, vs DMSO; read-out: IC50, CFpac-1 (Pancreas)
Description: In FIG. 9-24 in vitro IC50 values for the GGTase I activity are reported. In Tables 7-15 in cell GI50 values for the growth inhibition of a variety of cancer cell lines (e.g., Jurkat, K562, MDA-MB-231, BT474, MCF7, MiaPaCa2, Aspc-1, Panc-1, Capan-2, CFpac-1, and MCF10a) are reported.
as §1

Jurkat cells = test: Jurkat cell growth inhibition; format: cell-based, human; conditions: Homo sapiens, Jurkat, 72 h; 3 days, CCK-8, vs DMSO; read-out: IC50, Jurkat (Blood)
Procedure, shortened: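 Jurkat T-cell leukemia cells were exposed to compound for 72 h, with cell number counted and viability read by CCK-8 relative to the DMSO control. GI50 is the compound concentration giving 50% growth inhibition.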

MCF7 = MCF7 cell growth inhibition; format: cell-based, human
Procedure, shortened: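 GI50 from CCK-8 viability read-out, with viability calculated relative to DMSO control.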

| Compound | cell cycle effect in K562 cells (K562 cells) | mobility shift of H-Ras (protein farnesylation) [1] | PANC-1 xenograft tumor growth (PANC-1 xenograft tumor) | induction of p21CIP1/WAF1-luciferase activity versus DMSO (p21CIP1/WAF1 promoter) [fold] | IC50 (SE-Mk2) [µM] | IC50 (CFpac-1) [µM] | IC50 (Jurkat cells) [µM] | inhibition of proliferation of MCF-7 (MCF7; 72 hours, FIG. 37A) | IC50 (MCF7; Homo sapiens, MCF7, 144 h, 6 days, CCK-8, vs DMSO, read-out: IC50, MCF-7 (Breast)) [µM] |
| --- | --- | --- | --- | --- | --- | --- | --- | --- | --- |
| Cc1ccccc1S(=O)(=O)N1[C@@H](c2cccc(Cl)c2)C(C(=O)O)=CC[C@H]1c1ccc(Cl)cc1 [P3-E5] | induces G1 arrest | – | – | – | – | – | – | – | – |
| Cc1ccccc1S(=O)(=O)N1C(c2ccc(Cl)cc2)C(C(=O)NC(Cc2ccccc2)C(N)=O)=CC1C(C)(C)C (stereo not drawn) [P61-A6] | – | no such mobility shift | almost complete inhibition | 4 | 6.4 | 6.3 | 2.9 | dose-dependent inhibition of proliferation | 4.5 |
